Assay results: patent publication US8802138B2, “Methods and compositions for improved deliver, expression or activity of RNA interference agents” (priority 2009, dated 2014)
Entries after “also recorded” stand apart in the source; their conditions may differ.

Legend:
[1] = tested on: Hs766T, MCF7 and PC3 cells; assay: siGLO release after pretreatment with enabler agent, confocal fluorescence microscopy; assay type: cell-based, human; settings: agent 4 hours, then liposomal siGLO (DC-RNAi) 6 hours
Method: (§1) The effectiveness of RIDES in enhancing the intracellular bioavailability of RNAi (i.e., promoting the delivery of RNAi to the cytosol and the release of RNAi from liposomes, endosomes or lysosomes) was studied by monitoring the intracellular trafficking and locations of lipid vectors and RNAi using confocal fluorescence microscopy. […] For monitoring the location of liposomes, rodamine-labeled lipids (red fluorescence) was added to the liposome during liposome preparation. Internalization of siGLO-containing liposomes into the cytosol of a cell yields punctuated red and green fluorescence signals.
Three studies were conducted using siGLO as the RNAi. The lipid vector was the DC liposomes. The study was performed in one or more of three human tumor cell lines, i.e., pancreatic Hs766T, breast cancer MCF7, and prostate cancer PC3.
The first study evaluated the effects of pretreatment with enabler agents. […] Additional cytotoxic agents not acting through tubulin interaction or topoisomerase inhibition, i.e., cisplatin and 5-fluorouracil, were included as side-by-side comparisons. Cells were treated with one of these agents for 4 hours, followed by incubation with liposomal siGLO for 6 hours. […] After pretreatment with enabler agent, cells were washed with cold FBS-free medium for 3 times, fixed with formalin, stained with the nucleus dye DRAQ5, and examined using confocal fluorescence microscopy. […] Because only the free siGLO (not embedded in liposomes) can enter the nucleus, the nuclear accumulation of siGLO indicates the release of RNAi from the liposomes, endosomes, or lysosomes.

[2] = tested on: prostate cancer PC3 cells; assay: siGLO release with concurrent enabler treatment, confocal microscopy; assay type: cell-based, human; settings: agent concurrent with the siGLO treatment
Method: as §1
The study was performed in prostate cancer PC3 cells.

[3] = tested on: prostate PC3; assay: Paclitaxel cytotoxicity, MTT assay; assay type: cell-based; settings: Homo sapiens, read-out: 50% inhibition of IC50 (nM); PC3, 48 hours
[4] = tested on: porcine arterial smooth muscle cells; assay: Paclitaxel cytotoxicity, MTT assay, normal cells; assay type: cell-based
Method: (§2) In vivo antitumor activity was measured in tumor-bearing animals. In vitro antitumor activity was measured in cultured cells using the microtetrazolium assay (MTT). This assay measures the ability of cells to reduce the MTT dye, and is generally used as a measurement of the total cell number.
(§3) This was evaluated in porcine arterial smooth muscle cells; the duration of drug treatment was 36 hours. […] Cytotoxicity was measured using the using the MTT assay.

[5] = tested on: HS766T cells; assay: Concentration-dependence of paclitaxel effect on siGLO transfection; assay type: cell-based, human; settings: 10 and 50 nM for 4 hours
Method: as §1

[6] = tested on: pancreatic HS766T; assay: Paclitaxel cytotoxicity, MTT assay; assay type: cell-based, human
Method: as §2, §3

[7] = tested on: breast MCF7 cells; assay: Paclitaxel cytotoxicity, MTT assay; assay type: cell-based, human
[8] = tested on: HS766T cells; assay: Cytotoxicity of 4 hour paclitaxel treatment, MTT assay; assay type: cell-based, human; settings: 10 nM for 4 hours
Method: as §2

[9] = concentration time product producing 50% cytotoxicity

SMILES | nuclear accumulation of siGLO (release of RNAi from liposomes, endosomes or lysosomes) [1] | nuclear accumulation of siGLO [2] | also measured
N.N.[Cl][Pt][Cl] [cisplatin] | did not change the punctated pattern of siGLO localization; also recorded: ineffective | ineffective | 
O=c1[nH]cc(F)c(=O)[nH]1 [5-fluorouracil] | did not change the punctated pattern of siGLO localization; also recorded: ineffective |  | 
CC(=O)O[C@@]12CO[C@@H]1C[C@H](O)[C@@]1(C)C(=O)[C@H](O)C3=C(C)[C@@H](OC(=O)[C@H](O)[C@@H](NC(=O)OC(C)(C)C)c4ccccc4)C[C@@](O)([C@@H](OC(=O)c4ccccc4)[C@H]21)C3(C)C [docetaxel] | induced nuclear accumulation of green fluorescence signals |  | 
CC(=O)O[C@H]1C(=O)[C@@]2(C)[C@H]([C@H](OC(=O)c3ccccc3)[C@]3(O)C[C@H](OC(=O)[C@H](O)[C@@H](NC(=O)c4ccccc4)c4ccccc4)C(C)=C1C3(C)C)[C@]1(OC(C)=O)CO[C@@H]1C[C@@H]2O [paclitaxel] | induced nuclear accumulation of green fluorescence signals | extensive nuclear accumulation of siGLO | IC50 [3]: 15.5 nM; IC50 ([4]; Sus scrofa, read-out: 50% inhibition of IC50 (nM), 36 hours): 113 nM; CxT (nMxhr) [4, 9]: 4068 nMxhr; appearance of siGLO in the nucleus [5]: enhanced the appearance of siGLO in the nucleus at both concentrations; also recorded: effective; IC50 ([6]; Homo sapiens, read-out: 50% inhibition of IC50 (nM), 48 hours): 12.7 nM; CxT (nMxhr) [6, 9]: 610 nMxhr; IC50 ([7]; Homo sapiens, read-out: 50% inhibition of IC50 (nM), MCF7, 48 hours): 5.2 nM; CxT (nMxhr) ([7]; concentration time product producing 50% cytotoxicity, MCF7): 250 nMxhr; cytotoxicity [8]: no apparent toxicity
COc1cc2c(c(OC)c1OC)-c1ccc(OC)c(=O)cc1[C@@H](NC(C)=O)CC2 [colchicine] | induced nuclear accumulation of green fluorescence signals |  | 
COc1cccc2c1C(=O)c1c(O)c3c(c(O)c1C2=O)C[C@@](O)(C(=O)CO)C[C@@H]3O[C@H]1C[C@H](N)[C@H](O)[C@H](C)O1 [doxorubicin] | induced nuclear accumulation of green fluorescence signals |  | 
COC(=O)Nc1nc2ccc(C(=O)c3cccs3)cc2[nH]1 [nocodazole] | induced nuclear accumulation of green fluorescence signals | extensive nuclear accumulation of siGLO | 
CC[C@]1(O)C[C@H]2CN(CCc3c([nH]c4ccccc34)[C@@](C(=O)OC)(c3cc4c(cc3OC)N(C=O)[C@H]3[C@@](O)(C(=O)OC)[C@H](OC(C)=O)[C@]5(CC)C=CCN6CC[C@]43[C@@H]65)C2)C1 [vincristine] | induced nuclear accumulation of green fluorescence signals |  | 
